Reference: patent US20050234115A1, “Dosage forms and methods of treatment using VEGFR inhibitors” (Pfizer Inc., priority 2004, published 2005)
Read-outs that look alike come from different tables or passages of the source.

Columns and labels:
[1] = biological target: VEGFR-2 (Homo sapiens, UniProt P35968); experiment: VEGF stimulated VEGFR-2 autophosphorylation in whole cells; assay type: cell-based
Source text: (§1) The compound of formula 1 is an anti-angiogenic small molecule inhibitor of the tyrosine kinase activity of the vascular endothelial growth factor receptor 2 (VEGFR-2). […] Angiogenesis is necessary for the growth and metastasis of all solid tumors, in that newly formed blood vessels provide nutrients for growing tumors. VEGF is highly overexpressed in a number of tumors. The therapeutic objective of the compound of formula 1 is to inhibit angiogenesis and thereby prevent tumor growth by inhibition of VEGFR-2 tyrosine kinase (TK) activity.

[2] = tested on: endothelial cell; experiment: endothelial cell proliferation; assay type: cell-based
Source text: as §1

[3] = tested on: stage IIIb or IV NSCLC; experiment: phase 1/2 study with paclitaxel and carboplatin: anti-tumor activity; assay type: in vivo, human patients; settings: 24 patients evaluable for response, with P/C
Description: (§2) Anti-tumor activity was also assessed.

[4] = set-up: species or system human patients; settings: in vivo
Description: (§3) In a phase 1 study, fifty five (55) patients were treated with the compound of formula 2 as a single agent over a dose range from 35 mg PO (oral dose) for 14 days to 400 mg PO per day continuously. Overall, 25 male and 30 female patients were treated. Patient malignancies include: NSCL (11 patients), renal and urothelial (7 patients), breast (6 patients), colorectal (7 patients), esophageal (3 patients), pancreatic (2 patients), prostate (3 patients), melanoma (2 patients), head and neck (3 patients), soft tissue sarcoma (3 patients), other (8 patients). Forty-two patients had prior chemotherapy. Three patients starting at 300 mg/d had dose reductions to 225 mg/d; 2 reductions were for grade 3 hypertension (HTN), graded by the Common Toxicity Criteria (CTC version 2), occurring between days 15 and 18; 1 additional reduction was as per the patient's request after an episode of hemoptysis in this patient with renal cell carcinoma and lung metastasis. CTC Grade 3 hypertension was initially considered dose limiting at doses of the compound of formula 2 of 300 mg/d, occurring in 2 of 6 patients. Both patients returned to CTC grade 1 or better within 7 days of holding study drug.

[5] = tested on: patient malignancies (NSCL, renal and urothelial, breast, colorectal, other); experiment: phase 1 single agent study: tumor response; assay type: in vivo, human patients; settings: of 29 patients with tumor response data
Description: as §3
Of the 29 patients for whom tumor response data is available, 9 patients have stable disease beyond 2 cycles (more than 8 weeks) and 2 patients had stable disease beyond 4 cycles (more than 16 weeks).

[6] = clinical; settings: human, plasma, oral
Source text: (§4) With daily (i.e., QD) dosing, the 24-hour AUC value (i.e., the dosing interval AUC value) is a standard measure of systemic exposure to the compound.
(§5) A phase 1/2 study examined the safety and PK of escalating oral QD doses of the hydrochloride salt of the compound of formula 1, viz., the hydrochloride salt of 3-(4-Bromo-2,6-difluoro-benzyloxy)-5-[3-(4-pyrrolidin-1-yl-butyl)-ureido]-isothiazole-4-carboxylic acid amide (i.e., compound of formula 2 shown above), given in combination with paclitaxel (P) (225 mg m^2) and carboplatin (C) (AUC=6) administered in 21 day cycles to chemotherapy naïve patients with PS 0-1 stage IIIb or IV NSCLC with or without stable brain mets and PS 0-1.

[7] = phase 1/2 study with paclitaxel and carboplatin: safety; assay type: in vivo, human patients
Description: as §2

[8] = phase 1/2 study with paclitaxel and carboplatin: PK; settings: doses ≧150 mg QD
Source text: as §4, §5

[9] = phase 1 single agent study: pharmacokinetic analysis; assay type: in vivo, human patients; settings: for AUC: 250 mg
Description: A preliminary pharmacokinetic analysis has been performed on the compound of formula 2 concentration data from the patients in the Phase 1 study. In the higher dose cohorts in that study, blood specimens for pharmacokinetics were collected on Day 1 and 15 of Cycle 1 at the following times: just prior to dosing and at 0.5, 1, 2, 4, 6, 8, 12, 16, and 24 hours post-dose. Blood specimens for pharmacokinetics were also collected prior to and 2 hours after dosing on Days 3, 5, and 8 of Cycle 1. […] The 1% value of the cumulative distribution of the data is 2000 ng·hr/mL and the 99% value is 25000 ng·hr/mL. […] For instance, the 99% value for a dose of 300 mg is predicted to be 25000 ng·hr/mL times 1.2 (300 divided by 250) which equals 30000 ng·hr/mL. The 1% value for a dose of 125 mg is predicted to be 2000 ng·hr/mL times 0.5 (125 divided by 250) which equals 1000 ng·hr/mL. Similar calculations provide predictions of the 1% (lower) and 99% (upper) values of the cumulative distribution of 24-hour AUC values for doses of 150 mg, 180 mg, 260 mg, and 280 mg.

[10] = hygroscopicity of the salt; assay type: physicochemical; settings: at 90% relative humidity at ambient temperature
Description: The mixture was then shaken gently with heating at 50° C. for 3 hours and at ambient temperature for 3 days. The solid was filtered, dried under high vacuum to afford a white solid (468 mg, 0.823 mmol, 82%). Melting point 230° C. (DSC). Hygroscopicity: 1% (by weight)) at 90% relative humidity at ambient temperature (RH). Characteristic X-ray powder diffraction peaks (2-theta, [% relative intensity]): 8.623 [90.7], 12.121 [38.9], 17.298 [95.2], 23.397 [44.7], 23.944 [51.7], 24.119 [62.7], 24.873 [55.7], 25.948 [100], and 28.821 [39.6].

Chain of VEGFR-2 (P35968 20-1356): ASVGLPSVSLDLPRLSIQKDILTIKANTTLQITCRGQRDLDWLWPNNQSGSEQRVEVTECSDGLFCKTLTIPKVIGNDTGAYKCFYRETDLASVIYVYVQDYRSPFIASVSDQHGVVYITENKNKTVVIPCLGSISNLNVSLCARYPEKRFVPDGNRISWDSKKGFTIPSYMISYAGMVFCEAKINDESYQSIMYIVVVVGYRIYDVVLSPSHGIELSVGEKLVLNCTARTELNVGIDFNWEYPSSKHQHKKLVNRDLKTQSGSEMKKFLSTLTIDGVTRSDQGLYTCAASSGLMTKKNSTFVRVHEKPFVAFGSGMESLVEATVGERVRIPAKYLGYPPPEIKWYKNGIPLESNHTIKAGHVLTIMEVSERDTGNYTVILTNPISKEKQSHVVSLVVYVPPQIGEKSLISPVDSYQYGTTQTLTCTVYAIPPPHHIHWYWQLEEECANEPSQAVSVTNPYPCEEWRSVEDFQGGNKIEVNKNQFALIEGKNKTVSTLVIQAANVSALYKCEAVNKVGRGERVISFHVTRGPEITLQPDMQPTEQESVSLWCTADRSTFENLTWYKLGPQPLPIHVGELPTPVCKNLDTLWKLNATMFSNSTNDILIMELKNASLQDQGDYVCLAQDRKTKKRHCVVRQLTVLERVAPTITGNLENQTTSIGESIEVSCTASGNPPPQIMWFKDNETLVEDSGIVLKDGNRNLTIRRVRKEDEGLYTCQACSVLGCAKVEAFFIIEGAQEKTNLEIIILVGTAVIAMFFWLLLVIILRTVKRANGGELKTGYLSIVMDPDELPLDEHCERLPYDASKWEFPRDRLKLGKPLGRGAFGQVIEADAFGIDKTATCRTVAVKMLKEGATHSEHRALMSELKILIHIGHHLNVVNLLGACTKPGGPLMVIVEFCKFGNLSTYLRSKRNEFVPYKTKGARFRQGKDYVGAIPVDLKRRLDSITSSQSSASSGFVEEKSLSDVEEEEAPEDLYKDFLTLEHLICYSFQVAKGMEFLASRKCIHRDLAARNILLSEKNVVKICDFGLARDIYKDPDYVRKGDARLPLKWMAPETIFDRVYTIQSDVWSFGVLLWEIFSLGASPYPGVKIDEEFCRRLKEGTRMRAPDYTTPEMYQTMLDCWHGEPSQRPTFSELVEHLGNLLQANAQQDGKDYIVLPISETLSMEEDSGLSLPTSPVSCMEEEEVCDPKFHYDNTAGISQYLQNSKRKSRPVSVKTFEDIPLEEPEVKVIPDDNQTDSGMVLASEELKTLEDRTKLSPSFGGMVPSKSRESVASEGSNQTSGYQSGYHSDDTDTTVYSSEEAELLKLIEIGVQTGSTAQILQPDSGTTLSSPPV

NC(=O)c1c(OCc2c(F)cc(Br)cc2F)nsc1NC(=O)NCCCCN1CCCC1 [compound of formula 1]
inhibition of VEGF stimulated VEGFR-2 autophosphorylation [1]: inhibits VEGF stimulated VEGFR-2 autophosphorylation in whole cells
inhibition of endothelial cell proliferation [2]: inhibits endothelial cell proliferation

Cl.NC(=O)c1c(OCc2c(F)cc(Br)cc2F)nsc1NC(=O)NCCCCN1CCCC1 [compound of formula 2]
objective response rate [3]: 20%
progressive disease rate [3]: 33%
CTC Grade 3 hypertension (initially considered dose limiting) ([4]; both, human): 2 of 6
dermatologic events reported by more than one patient ([4]; both, human): grade 2 venostasis rash, which occurred in cycle 2, and grade 1 pallor and shingles
events in patient dose reduced from 400 mg to 350 mg ([4]; both, human): grade 3 fatigue
patients with dose limiting toxicities ([4]; both, human): None of the 4
patients with dose limiting toxicity ([4]; both, human): 1 of 10
recommended Phase 2 single agent dose ([4]; both, human): 250 mg
reports of grade 3 diarrhea ([4]; both, human): 3 reports
maximum administered dose ([4]; both, human, po): 400 mg
events in patient further dose reduced to 300 mg [4]: severe renal hemorrhage, alveolar hemorrhage and gastrointestinal hemorrhage
other gastrointestinal adverse events occurring in 2 or more patients [4]: nausea, taste disturbance, anorexia and mouth dryness
patients with stable disease beyond 2 cycles (more than 8 weeks) [5]: 9 patients
patients with stable disease beyond 4 cycles (more than 16 weeks) [5]: 2 patients
half-life [6]: ~32 h
most common treatment emergent adverse events ([7]; in vivo): diarrhea, fatigue, nausea, neuropathy, emesis, alopecia, dyspnea and arthralgia/myalgia
safety of combination with standard doses of P/C ([7]; in vivo, po): can be safely combined with standard doses of P/C
maximum tolerable dose ([7]; oral QD with paclitaxel 225 mg/m2 and carboplatin AUC=6, 21 day cycles, NSCLC patients): 200 mg/day
plasma concentrations achieved [8]: within the range associated with anti-angiogenesis in preclinical models
drug concentrations versus predicted efficacious concentrations ([9]; 250 mg daily dose): consistently above the lowest predicted human efficacious concentrations
24-hour AUC, predicted 1% value of the cumulative distribution ([9]; dose of 125 mg, assuming dose proportionality): 1000 ng·h/mL
24-hour AUC, predicted 99% value of the cumulative distribution ([9]; dose of 300 mg, assuming dose proportionality): 30000 ng·h/mL
AUC ([9]; human, plasma, oral, 250 mg QD, 19 patients, log-normal distribution, read-out: 24-hour AUC, geometric mean): 7260 ng·h/mL
AUC ([9]; human, plasma, oral, 250 mg QD, 19 patients, read-out: 24-hour AUC values, range): 2880 to 18700 ng·h/mL
AUC ([9]; human, plasma, oral, 250 mg QD, 19 patients, read-out: 24-hour AUC, 1% value of the cumulative distribution): 2000 ng·h/mL
AUC ([9]; human, plasma, oral, 250 mg QD, 19 patients, read-out: 24-hour AUC, 99% value of the cumulative distribution): 25000 ng·h/mL
Cmax ([9]; human, plasma, oral, 250 mg QD, 19 patients, standard deviation 240 ng/mL, read-out: mean Cmax (maximum observed plasma concentration)): 457 ng/mL
Hygroscopicity [10]: 1 % (by weight)
